Results: patent US20180028627A1, “TREATMENT VACCINE FOR PROSTATE CANCER” (Bioventures, LLC, priority 2015, published 2018)
≈ marks a conversion by molar mass, not a printed value. Residues, ends and D or L forms follow the SMILES beside them.

Key:
[1] = tested on: CD3 T-cells co-cultured with autologous LCs; assay: T-cell proliferation induced by treated LCs, alamarBlue; type: cell-based, human
[2] = PSA peptide solubility testing (turbidity); conditions: for Solubility, peptides tested individually: pH 4 or pH 5 with succinate (10 mM) or glutamate (10 mM)

Compound: tetanus toxoid
- T-cell proliferation ([1]; over media, 7 days co-culture of T cells with autologous LCs): no significant increase over media
- Measurable proliferation, increased fluorescence ([1]; subjects 2 and 5): ≥ 5000

Compound: CC[C@H](C)[C@H](NC(=O)[C@H](Cc1c[nH]c2ccccc12)NC(=O)[C@H](CCCCN)NC(=O)[C@H](CCCNC(=N)N)NC(=O)[C@H](Cc1ccc(O)cc1)NC(=O)[C@H](Cc1c[nH]cn1)NC(=O)[C@@H](NC(=O)[C@@H](NC(=O)[C@H](CCCCN)NC(=O)[C@@H](NC(=O)[C@H](Cc1ccc(O)cc1)NC(=O)[C@H](CC(C)C)NC(=O)[C@H](CO)NC(C)=O)[C@@H](C)O)C(C)C)C(C)C)C(=O)N[C@@H](CCCCN)C(=O)N[C@@H](CC(=O)O)C(=O)N[C@H](C(=O)N[C@H](C(=O)N[C@H](C(=O)N[C@@H](C)C(=O)N[C@@H](CC(N)=O)C(=O)N1CCC[C@H]1C(N)=O)C(C)C)[C@@H](C)CC)[C@@H](C)O [PSA 241-261, SLYTKVVHYR KWIKDTIVAN P] (Ac-SLYTKVVHYRKWIKDTIVANP-NH2; N-terminus and C-terminus assumed)
- Solubility, peptides tested individually [2]: soluble in both buffers

Compound: CC[C@H](C)[C@H](NC(=O)[C@H](CS)NC(=O)[C@H](Cc1c[nH]cn1)NC(=O)[C@H](C)NC(=O)[C@H](C)NC(=O)[C@@H](NC(=O)[C@H](CC(C)C)NC(=O)[C@@H](NC(=O)[C@H](Cc1c[nH]c2ccccc12)NC(=O)[C@H](CCC(N)=O)NC(=O)[C@@H]1CCCN1C(=O)[C@H](Cc1c[nH]cn1)NC(=O)[C@@H](NC(=O)[C@H](CC(C)C)NC(=O)[C@@H](NC(=O)CNC(=O)CNC(=O)[C@H](CS)NC(=O)[C@@H](NC(=O)[C@H](C)NC(=O)[C@H](CCCNC(=N)N)NC(=O)CNC(=O)[C@H](CCCNC(=N)N)NC(=O)[C@H](CO)NC(=O)[C@H](C)NC(=O)[C@@H](NC(=O)[C@H](CC(C)C)NC(C)=O)C(C)C)C(C)C)C(C)C)C(C)C)C(C)C)[C@@H](C)O)C(=O)N[C@@H](CCCNC(=N)N)C(=O)N[C@@H](CC(N)=O)C(=O)N[C@@H](CCCCN)C(=O)N[C@@H](CO)C(=O)N[C@H](C(=O)N[C@H](C(=O)N[C@@H](CC(C)C)C(=O)N[C@@H](CC(C)C)C(=O)NCC(=O)N[C@@H](CCCNC(=N)N)C(=O)N[C@@H](Cc1c[nH]cn1)C(=O)N[C@@H](CO)C(=O)N[C@@H](CC(C)C)C(N)=O)[C@@H](C)CC)C(C)C [PSA 41-80, LVASRGRAVCGGVLVHPQWVLTAAHCIRNKSVILLGRHSL] (Ac-LVASRGRAVCGGVLVHPQWVLTAAHCIRNKSVILLGRHSL-NH2; N-terminus and C-terminus assumed)
- Solubility, peptides tested individually [2]: soluble in both buffers

Compound: CSCC[C@H](NC(=O)[C@H](CC(=O)O)NC(=O)[C@H](Cc1ccc(O)cc1)NC(=O)[C@H](CC(C)C)NC(=O)[C@@H]1CCCN1C(=O)[C@H](Cc1c[nH]cn1)NC(=O)[C@@H]1CCCN1C(=O)[C@H](Cc1ccccc1)NC(=O)[C@H](CO)NC(=O)[C@H](Cc1c[nH]cn1)NC(=O)[C@H](CO)NC(=O)[C@@H](NC(=O)[C@H](CCC(N)=O)NC(=O)[C@H](Cc1ccccc1)NC(=O)[C@@H](NC(=O)[C@H](CCC(N)=O)NC(=O)CNC(=O)[C@@H](NC(=O)[C@H](CC(=O)O)NC(=O)[C@H](CCC(=O)O)NC(=O)[C@@H]1CCCN1C(=O)[C@H](Cc1c[nH]cn1)NC(=O)[C@H](Cc1ccccc1)NC(C)=O)[C@@H](C)O)C(C)C)C(C)C)C(=O)N[C@@H](CO)C(=O)N[C@@H](CC(C)C)C(=O)N[C@@H](CC(C)C)C(=O)N[C@@H](CCCCN)C(=O)N[C@@H](CC(N)=O)C(=O)N[C@@H](CCCNC(=N)N)C(=O)N[C@@H](Cc1ccccc1)C(=O)N[C@@H](CC(C)C)C(=O)N[C@@H](CCCNC(=N)N)C(=O)N1CCC[C@H]1C(=O)NCC(=O)N[C@@H](CC(=O)O)C(=O)N[C@@H](CC(=O)O)C(=O)N[C@@H](CO)C(=O)N[C@@H](CO)C(=O)N[C@@H](Cc1c[nH]cn1)C(=O)N[C@@H](CC(=O)O)C(N)=O [PSA 81-120, FHPEDTGQVFQVSHSFPHPLYDMSLLKNRFLRPGDDSSHD] (Ac-FHPEDTGQVFQVSHSFPHPLYDMSLLKNRFLRPGDDSSHD-NH2; N-terminus and C-terminus assumed)
- Solubility, peptides tested individually [2]: soluble in both buffers

Compound: CC[C@H](C)[C@H](NC(=O)[C@H](Cc1c[nH]c2ccccc12)NC(=O)[C@@H](NC(=O)[C@@H](NC(=O)[C@H](CO)NC(=O)[C@H](CC(C)C)NC(=O)[C@@H](NC(=O)[C@H](CC(C)C)NC(=O)[C@H](Cc1ccccc1)NC(=O)[C@@H](NC(=O)[C@@H](NC(=O)[C@@H]1CCCN1C(=O)[C@@H](NC(=O)[C@H](Cc1c[nH]c2ccccc12)NC(=O)[C@H](CCSC)NC(C)=O)C(C)C)C(C)C)C(C)C)[C@@H](C)O)C(C)C)[C@@H](C)O)C(=O)NCC(=O)N[C@@H](C)C(=O)N[C@@H](C)C(=O)N1CCC[C@H]1C(=O)N[C@@H](CC(C)C)C(=O)N[C@H](C(=O)N[C@@H](CC(C)C)C(=O)N[C@@H](CO)C(=O)N[C@@H](CCCNC(=N)N)C(=O)N[C@H](C(=O)N[C@H](C(=O)NCC(=O)NCC(=O)N[C@@H](Cc1c[nH]c2ccccc12)C(=O)N[C@@H](CCC(=O)O)C(=O)N[C@@H](CS)C(=O)N[C@@H](CCC(=O)O)C(=O)N[C@@H](CCCCN)C(=O)N[C@@H](Cc1c[nH]cn1)C(=O)N[C@@H](CO)C(=O)N[C@@H](CCC(N)=O)C(=O)N1CCC[C@H]1C(=O)N[C@@H](Cc1c[nH]c2ccccc12)C(=O)N[C@@H](CCC(N)=O)C(=O)N[C@H](C(N)=O)C(C)C)C(C)C)[C@@H](C)CC)[C@@H](C)CC [PSA 1-40, MWVPVVFLTLSVTWIGAAPLILSRIVGGWECEKHSQPWQV] (Ac-MWVPVVFLTLSVTWIGAAPLILSRIVGGWECEKHSQPWQV-NH2; N-terminus and C-terminus assumed)
- Solubility ([2]; after dilution from 20 mg/ml to 5 mg/ml, 10 mM succinate, pH5.0 with 5% glycine): remained insoluble
- Solubility ([2]; at 20 mg/ml in 10 mM succinate, pH5.0 with 5% glycine): insoluble
- Solubility ([2]; in the presence of other PSA peptides): solubility was enhanced
- Solubility, peptides tested individually [2]: All except PSA 1-40 were soluble in both buffers
- Solubility ([2]; pH 5): 5500 µg/mL (≈ 1200 µM)
